Measured values as given in US20230257372A1 (CHONG KUN DANG PHARMACEUTICAL CORP., priority 2020, published 2023).
Like-named read-outs stand apart in the source and are kept apart here.

Key:
human recombinant HDAC1 = molecular target: T1, human recombinant HDAC1 (Homo sapiens, UniProt Q13547); test: HDAC1 enzyme activity inhibition (HDAC Fluorimetric Drug Discovery Kit); format: biochemical; details: read-out: HDAC1
T1 construct: purchased Enzo Life Science, Inc. BML-SE456
Method in brief: (§1)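 Compounds in 5-fold dilution series were incubated with […] enzyme and 10 μM substrate at 30° C for 60 minutes. Fluor de Lys Developer II was then added for 30 minutes to stop the reaction and develop the fluorescent signal.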

human recombinant HDAC6 = molecular target: T2, human recombinant HDAC6 (Homo sapiens, UniProt Q9UBN7); test: HDAC6 enzyme activity inhibition (HDAC Fluorimetric Drug Discovery Kit); format: biochemical
T2 construct: purchased Calbiochem Inc. 382180
T2 sequence (Q9UBN7 1-1215): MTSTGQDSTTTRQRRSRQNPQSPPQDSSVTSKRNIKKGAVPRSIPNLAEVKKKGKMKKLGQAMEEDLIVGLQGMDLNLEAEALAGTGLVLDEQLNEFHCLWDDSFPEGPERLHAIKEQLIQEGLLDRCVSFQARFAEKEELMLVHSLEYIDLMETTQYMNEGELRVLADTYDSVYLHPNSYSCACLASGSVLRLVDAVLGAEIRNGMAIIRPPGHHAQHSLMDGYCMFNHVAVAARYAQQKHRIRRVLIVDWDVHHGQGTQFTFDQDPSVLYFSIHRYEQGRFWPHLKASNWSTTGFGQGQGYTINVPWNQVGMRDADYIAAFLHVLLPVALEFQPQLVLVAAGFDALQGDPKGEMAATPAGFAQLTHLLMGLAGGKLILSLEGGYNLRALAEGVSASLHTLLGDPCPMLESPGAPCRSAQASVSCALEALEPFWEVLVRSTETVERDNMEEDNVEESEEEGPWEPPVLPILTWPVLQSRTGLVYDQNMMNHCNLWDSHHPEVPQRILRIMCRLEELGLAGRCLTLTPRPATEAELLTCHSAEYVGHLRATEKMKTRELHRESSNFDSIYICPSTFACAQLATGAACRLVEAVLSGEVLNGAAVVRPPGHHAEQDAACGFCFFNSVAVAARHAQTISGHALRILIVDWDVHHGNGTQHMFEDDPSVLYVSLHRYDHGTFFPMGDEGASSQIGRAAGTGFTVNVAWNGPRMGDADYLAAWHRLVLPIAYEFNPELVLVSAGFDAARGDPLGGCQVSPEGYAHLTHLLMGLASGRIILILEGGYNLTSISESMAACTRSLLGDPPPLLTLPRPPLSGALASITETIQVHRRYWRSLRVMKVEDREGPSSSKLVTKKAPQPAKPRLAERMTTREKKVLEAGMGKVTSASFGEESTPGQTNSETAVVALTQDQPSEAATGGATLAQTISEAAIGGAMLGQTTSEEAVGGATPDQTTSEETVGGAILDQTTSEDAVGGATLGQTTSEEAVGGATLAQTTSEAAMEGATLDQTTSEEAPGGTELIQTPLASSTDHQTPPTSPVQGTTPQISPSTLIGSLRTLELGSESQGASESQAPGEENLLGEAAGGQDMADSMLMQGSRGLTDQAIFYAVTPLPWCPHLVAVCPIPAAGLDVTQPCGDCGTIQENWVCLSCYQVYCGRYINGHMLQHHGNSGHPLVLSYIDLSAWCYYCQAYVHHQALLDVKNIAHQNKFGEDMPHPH
Method in brief: as §1

[1] = human recombinant HDAC1, Fluor de Lys substrate, 30° C. 60 minutes
[2] = human recombinant HDAC6, same protocol as HDAC1
[3] = human recombinant HDAC1, IC50 calculated with GraphPad Prism
[4] = human recombinant HDAC6, IC50 calculated with GraphPad Prism

T1 sequence (Q13547 whole entry): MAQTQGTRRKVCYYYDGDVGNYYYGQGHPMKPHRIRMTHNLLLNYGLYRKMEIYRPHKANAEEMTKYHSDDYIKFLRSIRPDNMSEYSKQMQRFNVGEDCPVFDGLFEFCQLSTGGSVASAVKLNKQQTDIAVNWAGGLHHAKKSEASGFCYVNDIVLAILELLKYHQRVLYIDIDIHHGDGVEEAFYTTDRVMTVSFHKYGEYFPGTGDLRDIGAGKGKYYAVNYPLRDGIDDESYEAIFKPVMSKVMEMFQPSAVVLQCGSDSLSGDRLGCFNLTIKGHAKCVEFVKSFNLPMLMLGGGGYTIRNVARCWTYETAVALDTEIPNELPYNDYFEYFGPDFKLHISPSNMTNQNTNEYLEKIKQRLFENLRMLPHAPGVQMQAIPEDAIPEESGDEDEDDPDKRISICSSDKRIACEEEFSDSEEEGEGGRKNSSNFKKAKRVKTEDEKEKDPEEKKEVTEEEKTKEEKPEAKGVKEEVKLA

Structure (SMILES)	IC50 (human recombinant HDAC1; [1])	HDAC6 selectivity (fold) (human recombinant HDAC6; HDAC6 over HDAC1)	IC50 (human recombinant HDAC6; [2])	IC50 (human recombinant HDAC1; [3])	HDAC6 selectivity (fold) (human recombinant HDAC6; HDAC1 IC50 / HDAC6 IC50)	IC50 (human recombinant HDAC6; [4])
CCN1CC(c2cccc(-c3cn(Cc4ccc(-c5nnc(C(F)F)o5)cc4)nn3)c2)C1 [Compound 4508, 2-(difluoromethyl)-5-(4-((4-(3-(1-ethylazetidin-3-yl)phenyl)-1H-1,2,3-triazol-1-yl)methyl)phenyl)-1,3,4-oxadiazole]	> 50000 nM	1381 fold	36.2 nM			
CCN1Cc2ccc(-c3cn(Cc4ccc(-c5nnc(C(F)F)o5)cc4F)nn3)cc2C1 [Compound 4516, 2-(difluoromethyl)-5-(4-((4-(2-ethylisoindolin-5-yl)-1H-1,2,3-triazol-1-yl)methyl)-3-fluorophenyl)-1,3,4-oxadiazole]	> 50000 nM	680 fold	73.5 nM			
CCN1CCN(c2cccc(-c3cn(Cc4ccc(-c5nnc(C(F)F)o5)cc4F)nn3)c2F)CC1 [Compound 4577, 2-(difluoromethyl)-5-(4-((4-(3-(4-ethylpiperazin-1-yl)-2-fluorophenyl)-1H-1,2,3-triazol-1-yl)methyl)-3-fluorophenyl)-1,3,4-oxadiazole]	> 50000 nM	2688 fold	18.6 nM			
Fc1cc(-c2nnc(C(F)F)o2)ccc1Cn1cc(-c2cccc(CN3CC(F)C3)c2)nn1 [Compound 4403, 2-(difluoromethyl)-5-(3-fluoro-4-((4-(3-((3-fluoroazetidin-1-yl)methyl)phenyl)-1H-1,2,3-triazol-1-yl)methyl)phenyl)-1,3,4-oxadiazole]				> 50000 nM	1213 fold	41.2 nM
CN1CC(N2CCC(c3cccc(-c4cn(Cc5ccc(-c6nnc(C(F)F)o6)cc5F)nn4)c3)CC2)C1 [Compound 4294, 2-(difluoromethyl)-5-(3-fluoro-4-((4-(3-(1-(1-methylazetidin-3-yl)piperidin-4-yl)phenyl)-1H-1,2,3-triazol-1-yl)methyl)phenyl)-1,3,4-oxadiazole]				> 50000 nM	791 fold	63.2 nM
Fc1ccnc(-c2cn(Cc3ccc(-c4nnc(C(F)F)o4)cn3)nn2)c1 [Compound 4179, 2-(difluoromethyl)-5-(6-((4-(4-fluoropyridin-2-yl)-1H-1,2,3-triazol-1-yl)methyl)pyridin-3-yl)-1,3,4-oxadiazole]				> 50000 nM	672 fold	74.4 nM
CN1CC(NC(=O)c2cccc(-c3cn(Cc4ccc(-c5nnc(C(F)F)o5)cn4)nn3)c2)C1 [Compound 4480, 3-(1-((5-(5-(difluoromethyl)-1,3,4-oxadiazol-2-yl)pyridin-2-yl)methyl)-1H-1,2,3-triazol-4-yl)-N-(1-methylazetidin-3-yl)benzamide]				> 50000 nM	1388 fold	36 nM
O=c1ccc(-c2cn(Cc3ccc(-c4nnc(C(F)F)o4)cn3)nn2)c[nH]1 [Compound 3845, 5-(1-((5-(5-(difluoromethyl)-1,3,4-oxadiazol-2-yl)pyridin-2-yl)methyl)-1H-1,2,3-triazol-4-yl)pyridin-2(1H)-one]				> 50000 nM	3105 fold	16.1 nM
CN1CCc2cc(-c3cn(Cc4ccc(-c5nnc(C(F)F)o5)cn4)nn3)ccc2C1 [Compound 4051, 2-(difluoromethyl)-5-(6-((4-(2-methyl-1,2,3,4-tetrahydroisoquinolin-6-yl)-1H-1,2,3-triazol-1-yl)methyl)pyridin-3-yl)-1,3,4-oxadiazole]				> 50000 nM	1623 fold	30.8 nM
CC(C)N1CCc2ccc(-c3cn(Cc4ccc(-c5nnc(C(F)F)o5)cc4F)nn3)cc2C1 [Compound 4365, 2-(difluoromethyl)-5-(3-fluoro-4-((4-(2-isopropyl-1,2,3,4-tetrahydroisoquinolin-7-yl)-1H-1,2,3-triazol-1-yl)methyl)phenyl)-1,3,4-oxadiazole]				> 50000 nM	1089 fold	45.9 nM
